Laboratory results from patent publication US20250042862A1, “AROMATIC HETEROCYCLIC COMPOUND AND APPLICATION THEREOF” (Shanghai Institute of Materia Medica, Chinese Academy of …, priority 2021, published 2025).
pIC50: −log10 of the molar value.

Biological target: human recombinant LSD1 protein (Homo sapiens (Human), UniProt O60341)
Assay: In vitro enzyme inhibition activity assay - LSD1 (Lance Ultra TR-FRET)
Type: biochemical
Conditions: all compounds tested in the form of hydrochloride
Procedure: The purpose of this experiment was to test the in vitro inhibitory activity of the compounds against LSD1. The human recombinant LSD1 protein used in the experiment was purchased from Active Motif, and the enzyme level activity testing assay of LSD1 was performed using the Lance Ultra LSD1 Histone H3 Lysine 4 Demethylase Assay Kit (PerkinElmer). Tris-buffer (50 mMTris-HCl, 50 mMNaCl, 0.01% Tween-20, 1 mM DTT, 10 μM FAD, 10% glycerol, pH 9.0) was first prepared, and after preparation, the LSD1 fractions required for test were placed in this buffer and incubated for one hour at room temperature; the fractions included 4 μL of substrate solution ([…] Bio-H3K4me2, 1-24aa), 4 μL of enzyme solution (4 nM LSD1), and 2 μL of inhibitor in a 384-well microplate. After these operations, another 5 μL of assay mixture containing Eu-labeled H3K4me0 antibody and ULight-Streptavidin anti-biotin protein was added to the system, after which the fluorescence intensity of the components to be tested was detected by using Envision (PerkinElmer) in TR-FRET mode (excitation wavelength of 320 nm, emission wavelength of 620 nm). The test was repeated a total of three times to minimize errors. The final IC50 data were calculated by the software GraphPad Prism 5, and finally the sigmoidal dose-response (variable slope) method was used to obtain the fitted curve.
The LSD1 inhibitory activities of representative compounds of the present application as well as the positive control compound CC90011 were provided in Table 2. All compounds were tested in the form of hydrochloride.

pIC50, ≥ 7.52:
N#Cc1ccc(-c2nc(N3CCC(N)CC3)nc3ccc(-c4c(Cl)cccc4Cl)cc23)cc1F [Compound 20, 4-(2-(4-aminopiperidin-1-yl)-6-(2,6-dichlorophenyl)quinazolin-4-yl)-2-fluorobenzonitrile]
N#Cc1ccc(-c2nc(N3CCC(N)CC3)nc3ccc(-c4cccc(F)c4C(F)(F)F)cc23)cc1F [Compound 23, 4-(2-(4-Aminopiperidin-1-yl)-6-(3-fluoro-2-(trifluoromethyl)phenyl)quinazolin-4-yl)-2-fluorobenzonitrile]
Cn1c(=O)c(-c2ccccc2C(F)(F)F)cc2c(-c3ccc(C#N)c(F)c3)nc(N3CCC(N)CC3)nc21 [Compound 99, 4-(2-(4-aminopiperidin-1-yl)-8-methyl-7-oxo-6-(2-trifluoromethylphenyl)-7,8-dihydropyrido[2,3-d]pyrimidin-4-yl)-2-fluorobenzonitrile]
N#Cc1ccc(-c2nc(N3CCC(N)CC3)nc3c(F)cc(-c4ccccc4C(F)(F)F)cc23)cc1F [Compound 80, 4-(2-(4-aminopiperidin-1-yl)-8-fluoro-6-(2-trifluoromethylphenyl)quinazolin-4-yl)-2-fluorobenzonitrile]
N#Cc1ccc(-c2nc(N3CCC(N)CC3)nc3c(F)cc(-c4c(F)cccc4C(F)(F)F)cc23)cc1F [Compound 82]
N#Cc1ccc(-c2nc(NC[C@H]3CCNC3)nc3ccc(-c4c(F)cccc4C(F)(F)F)cc23)cc1F [Compound 54, (S)-4-(6-(2-fluoro-6-(trifluoromethylphenyl)-2-(pyrrolidin-3-ylmethyl)amino)quinazolin-4-yl)-2-fluorobenzonitrile]
Cc1cccc(Cl)c1-c1ccc2nc(N3CCC(N)CC3)nc(-c3ccc(C#N)c(F)c3)c2c1 [Compound 21, 4-(2-(4-Aminopiperidin-1-yl)-6-(2-chloro-6-methylphenyl)quinazolin-4-yl)-2-fluorobenzonitrile]
N#Cc1ccc(-c2nc(N3CCC4NCCC4C3)nc3ccc(-c4c(F)cccc4C(F)(F)F)cc23)cc1F (centres unmarked) [Compound 76, 2-Fluoro-4-(6-(2-fluoro-6-(trifluoromethyl)phenyl)-2-(octahydro-5H-pyrrolo[3,2-c]pyridin-5-yl)quinazolin-4-yl)benzonitrile]
Cc1cccc(Cl)c1-c1ccc2nc(NC[C@H]3CCNC3)nc(-c3ccc(C#N)c(F)c3)c2c1 [Compound 53]
N#Cc1ccc(-c2nc(N3CCC(N)CC3)nc3ccc(-c4ccccc4Cl)cc23)cc1F [Compound 16, 4-(2-(4-aminopiperidin-1-yl)-6-(2-chlorophenyl)quinazolin-4-yl)-2-fluorobenzonitrile]
N#Cc1ccc(-c2nc(N3CCCC(N)C3)nc3ccc(-c4c(F)cccc4C(F)(F)F)cc23)cc1F (centres unmarked) [Compound 70, 4-(2-(3-aminopiperidin-1-yl)-6-(2-fluoro-6-(trifluoromethyl)phenyl)quinazolin-4-yl)-2-fluorobenzonitrile]
Cc1cccc(C)c1-c1ccc2nc(NC[C@H]3CCNC3)nc(-c3ccc(C#N)c(F)c3)c2c1 [Compound 45, (S)-4-(6-(2,6-dimethylphenyl)-2-((pyrrolidin-3-ylmethyl)amino)quinazolin-4-yl)-2-fluorobenzonitrile]
COC1=CC=C(c2c(-c3ccc(C#N)c(F)c3)nc(N3CCC(N)CC3)n(C)c2=O)CC1F (centres unmarked) [CC90011, reference compound]
Cc1cccc(F)c1-c1ccc2nc(NC[C@H]3CCNC3)nc(-c3ccc(C#N)c(F)c3)c2c1 [Compound 48, (S)-2-fluoro-4-(6-(2-fluoro-6-methylphenyl)-2-((pyrrolidin-3-ylmethyl)amino)quinazolin-4-yl)benzonitrile]
N#Cc1ccc(-c2nc(N3CC[C@H](N)[C@H](F)C3)nc3ccc(-c4c(F)cccc4C(F)(F)F)cc23)cc1F [Compound 67, 4-(2-((3R,4S)-4-amino-3-fluoropiperidin-1-yl)-6-(2-fluoro-6-(trifluoromethyl)phenyl)quinazolin-4-yl)-2-fluorobenzonitrile]
CC1(N)CCN(c2nc(-c3ccc(C#N)c(F)c3)c3cc(-c4c(F)cccc4C(F)(F)F)ccc3n2)CC1 [Compound 63, 4-(2-(4-Amino-4-methylpiperidin-1-yl)-6-(2-fluoro-6-(trifluoromethyl)phenyl)quinazolin-4-yl)-2-fluorobenzonitrile]
N#Cc1ccc(-c2nc(N3CCC(N)CC3)nc3ccc(-c4ccccc4C(F)(F)F)cc23)cc1F [Compound 14, 4-(2-(4-aminopiperidin-1-yl)-6-(2-(trifluoromethyl)phenyl)quinazolin-4-yl)-2-fluorobenzonitrile]

pIC50, 6.52 to 7.52:
N#Cc1ccc(-c2nc(N3CC[C@@H](N)[C@H](F)C3)nc3ccc(-c4c(F)cccc4C(F)(F)F)cc23)cc1F [Compound 84, 4-(2-((3R,4R)-4-amino-3-fluoropiperidin-1-yl)-6-(2-fluoro-6-(trifluoromethyl)phenyl)quinazolin-4-yl)-2-fluorobenzonitrile]
N#Cc1ccc(-c2nc(NC[C@H]3CCNC3)nc3ccc(-c4cc(F)ccc4C(F)(F)F)cc23)cc1F [Compound 56, (S)-4-(6-(5-fluoro-2-(trifluoromethyl)-2-(pyrrolidin-3-ylmethyl)amino)quinazolin-4-yl)-2-fluorobenzonitrile]
Cc1ccccc1-c1ccc2nc(NC[C@H]3CCNC3)nc(-c3ccc(C#N)c(F)c3)c2c1 [Compound 37, (S)-2-fluoro-4-(2-((pyrrolidin-3-ylmethyl)amino)-6-(o-methylphenyl)quinazolin-4-yl)benzonitrile]
Cc1noc(C)c1-c1ccc2nc(N3CCC(N)CC3)nc(-c3ccc(C#N)c(F)c3)c2c1 [Compound 3, 4-(2-(4-aminopiperidin-1-yl)-6-(3,5-dimethylisoxazol-4-yl)quinazolin-4-yl)-2-fluorobenzonitrile]
COc1ccc(-c2ccc3nc(NC[C@H]4CCNC4)nc(-c4ccc(C#N)c(F)c4)c3c2)cc1F [Compound 35, (S)-2-fluoro-4-(6-(3-fluoro-4-methoxyphenyl)-2-((pyrrolidin-3-ylmethyl)amino)quinazolin-4-yl)benzonitrile]
COc1ccc(-c2ccc3nc(N4CCC(N)CC4)nc(-c4ccc(C#N)cc4)c3c2)cc1F [Compound 25, 4-(2-(4-aminopiperidin-1-yl)-6-(3-fluoro-4-methoxyphenyl)quinazolin-4-yl)benzonitrile]
N#Cc1ccc(-c2nc(N3CCC[C@H](N)C3)nc3ccc(-c4c(F)cccc4C(F)(F)F)cc23)cc1F [Compound 75, (S)-4-(2-(3-aminopiperidin-1-yl)-6-(2-fluoro-6-(trifluoromethyl)phenyl)quinazolin-4-yl)-2-fluorobenzonitrile]
N#Cc1ccc(-c2nc(N3CCC(N)CC3)nc3cc(F)c(-c4ccccc4C(F)(F)F)cc23)cc1F [Compound 79, 4-(2-(4-Aminopiperidin-1-yl)-7-fluoro-6-(2-(trifluoromethyl)phenyl)quinazolin-4-yl)-2-fluorobenzonitrile]
Cc1cccc(-c2ccc3nc(N4CCC(N)CC4)nc(-c4ccc(C#N)c(F)c4)c3c2)c1 [Compound 8, 4-(2-(4-aminopiperidin-1-yl)-6-(m-methylphenyl)quinazolin-4-yl)-2-fluorobenzonitrile]
N#Cc1ccc(-c2nc(NC[C@H]3CCNC3)nc3ccc(-c4c(F)cccc4F)cc23)cc1F [Compound 50, (S)-4-(6-(2,6-difluorophenyl)-2-((pyrrolidin-3-ylmethyl)amino)quinazolin-4-yl)-2-fluorobenzonitrile]
COc1ccc(-c2ccc3nc(NC[C@@H]4CCNC4)nc(-c4ccc(C#N)c(F)c4)c3c2)cc1F [Compound 36, (R)-2-fluoro-4-(6-(3-fluoro-4-methoxyphenyl)-2-((pyrrolidin-3-ylmethyl)amino)quinazolin-4-yl)benzonitrile]
N#Cc1ccc(-c2nc(NC[C@H]3CCNC3)nc3ccc(-c4ccccc4OC(F)(F)F)cc23)cc1F [Compound 39, (S)-2-fluoro-4-(2-((pyrrolidin-3-ylmethyl)amino)-6-(2-(trifluoromethoxy)phenyl)quinazolin-4-yl)benzonitrile]
N#Cc1ccc(-c2nc(NC[C@H]3CCNC3)nc3ccc(-c4ccccc4F)cc23)cc1F [Compound 41, (S)-2-fluoro-4-(2-((pyrrolidin-3-ylmethyl)amino)-6-(2-fluorophenyl)quinazolin-4-yl)-2-fluorobenzonitrile]
N#Cc1ccc(-c2nc(NC[C@H]3CCNC3)nc3ccc(-c4cccc(O)c4F)cc23)cc1F [Compound 61, (S)-2-fluoro-4-(6-(2-fluoro-3-hydroxyphenyl)-2-((pyrrolidin-3-ylmethyl)amino)quinazolin-4-yl)benzonitrile]
Cn1ncc2c(-c3ccc4nc(N5CCC(N)CC5)nc(-c5ccc(C#N)c(F)c5)c4c3)cccc21 [Compound 10, 4-(2-(4-aminopiperidin-1-yl)-6-(1-methyl-1H-indazol-4-yl)quinazolin-4-yl)-2-fluorobenzonitrile]
